The values that follow come from article doi:10.1101/2020.07.29.226878v1 (bioRxiv, 2020).

Experiment [1] has as its system sheep blowflies (Lucilia cuprina). Kind of experiment: In vivo insecticidal assay, intrathoracic injection into sheep blowflies.
The subject of another experiment is Acheta domesticus. The following applies: tested in Acheta domesticus; cited from earlier work.

As for “Δ-pseudomyrmecitoxin-Pp1a [Δ-PSDTX-Pp1a]”, the “LD50 in blow fly assays (abstract)” value in experiment [1] amounted to 3 nM.
On to ponericin G1, for which the “LD50 at 24 h” value in the experiment on Acheta domesticus is reported as 25.7 nmol/g.
